Patent publication US8362050B2, “Compounds and methods for modulating G protein-coupled receptors” (IRM LLC, priority 2008, dated 2013)
Like-named read-outs stand apart in the source and are kept apart here.

Biological target: T1, Human GPR120 (Homo sapiens, UniProt Q5NUL3)
T1 construct: Ga16 (promiscuous G protein) fusion partner; expressed in transfected cells
T1 sequence (Q5NUL3 with tags, fused parts or gaps): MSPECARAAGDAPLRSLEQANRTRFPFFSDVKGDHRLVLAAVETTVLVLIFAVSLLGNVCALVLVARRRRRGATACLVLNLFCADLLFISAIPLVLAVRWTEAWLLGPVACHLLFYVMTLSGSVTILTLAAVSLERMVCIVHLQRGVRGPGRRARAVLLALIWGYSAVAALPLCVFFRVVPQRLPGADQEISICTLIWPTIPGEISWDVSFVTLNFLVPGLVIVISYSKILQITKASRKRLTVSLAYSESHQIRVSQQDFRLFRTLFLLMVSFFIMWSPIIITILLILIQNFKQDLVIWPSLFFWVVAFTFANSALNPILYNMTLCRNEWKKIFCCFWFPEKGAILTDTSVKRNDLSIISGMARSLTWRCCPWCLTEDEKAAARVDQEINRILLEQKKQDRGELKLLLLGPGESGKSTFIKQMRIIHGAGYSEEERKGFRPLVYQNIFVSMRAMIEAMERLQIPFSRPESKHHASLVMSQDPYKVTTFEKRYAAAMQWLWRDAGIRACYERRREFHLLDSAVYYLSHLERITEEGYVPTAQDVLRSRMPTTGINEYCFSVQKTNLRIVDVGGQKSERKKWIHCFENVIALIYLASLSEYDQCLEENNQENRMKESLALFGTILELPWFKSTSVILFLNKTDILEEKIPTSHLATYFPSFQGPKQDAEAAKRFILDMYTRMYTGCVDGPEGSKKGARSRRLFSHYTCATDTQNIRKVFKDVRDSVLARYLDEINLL
Experiment: FLIPR assay: agonist-induced calcium mobilization in HEK293-GPR120-Ga16 cells
Assay type: cell-based
Settings: for Emax: % enhancement of the test compound relative to a known compound, read-out: % Efficiency; for EC50: GPR120 activation, calcium mobilization, HEK293-GPR120-Ga16 cells
Procedure: Human GPR120 stable cell-line was generated in HEK293 cells. GPR120 (Accession number BC101175) is fused to a promiscuous G protein, Ga16. The expression plasmid is transfected into HEK293 cells using Fugene6 following manufacturer's instruction. Stable cell-lines are generated following drug selection.
FLIPR (Fluorimetric Imaging Plate Reader, Molecular Devices) assays are performed to measure agonist-induced calcium mobilization in the GPR120-expressing cells. One day before the FLIPR assay, HEK293-GPR120-Ga16 cells are seeded into poly-D-lysine coated black-wall-clear bottom 384 well plates (Falcon) at 25,000 cells per well in 40 μl DMEM supplemented with 1% of FBS. The cells are incubated overnight at 37° C. in a humidified incubator. The medium is aspirated on the day of the FLIPR assay. The cells are incubated with 50 μl/well of the assay buffer (HBSS, 20 mM HEPES, 2.5 mM probenecid, pH7.4) containing Fluo-4 NM dye (Invitrogen cat# F36205) at 37° C. for 45 minutes, and then equilibrated at room temperature for 30 minutes. Compounds are dissolved in DMSO and diluted to desired concentrations with assay buffer. Fluorescent output is measured immediately following compound addition (12.5 μl/well) on the FLIPR machine.
An EC50 value was calculated using the change of fluorescent intensity from the reaction initiation. […] In some examples, compounds provided herein have EC50 values from 0.1 μM to 5 μM, while in other examples from 0.5 μM to 5 μM.
The EC50 value in those experiments is given as that concentration of the test compound in question that provoke a response halfway between the baseline and maximum responses. In certain examples compounds of Formula (I) have EC50 values from 0.001 μM to 5 μM. In other examples, compounds of Formula (I) have EC50 values from 0.001 μM to 4 μM. In other examples, compounds of Formula (I) have EC50 values from 0.001 μM to 3 μM. In other examples, compounds of Formula (I) have EC50 values from 0.001 μM to 2 μM. In other examples, compounds of Formula (I) have EC50 values from 0.001 μM to 1 μM. In other examples, compounds of Formula (I) have EC50 values from 0.001 μM to 0.5 μM. […] In other examples, compounds of Formula (I) have EC50 values from 0.001 μM to 0.1 μM.
The % efficiency in those experiments is given as that % enhancement of the test compound in question relative to a known compound. In certain examples compounds of Formula (I) have a % efficiency values from 50% to 150%. In other examples, compounds of Formula (I) have a % efficiency values from 55% to 150%. In other examples, compounds of Formula (I) have a % efficiency values from 60% to 150%. In other examples, compounds of Formula (I) have a % efficiency values from 65% to 150%. In other examples, compounds of Formula (I) have a % efficiency values from 70% to 150%. In other examples, compounds of Formula (I) have a % efficiency values from 75% to 150%. In other examples, compounds of Formula (I) have a % efficiency values from 80% to 150%. In other examples, compounds of Formula (I) have a % efficiency values from 85% to 150%. In other examples, compounds of Formula (I) have a % efficiency values from 90% to 150%. In other examples, compounds of Formula (I) have a % efficiency values from 95% to 150%. In other examples, compounds of Formula (I) have a % efficiency values from 100% to 150%.

| Compound | Emax | EC50 (read-out: EC50) | EC50 (read-out: EC50 Range) |
| --- | --- | --- | --- |
| O=C(O)c1cccc(-n2cc(-c3ccc(C(F)(F)F)cc3)nn2)c1 [Compound 58, 3-(4-(4-(trifluoromethyl)phenyl)-1H-1,2,3-triazol-1-yl)benzoic acid] | – | – | 1000 to 5000 nM |
| CCn1c(-c2cccc(OCc3ccccn3)c2)cs/c1=N\c1ccc(C(=O)O)cc1 [Compound 27, (Z)-4-(3-ethyl-4-(3-(pyridin-2-ylmethoxy)phenyl)thiazol-2(3H)-ylideneamino)benzoic acid] | 65.9% | 700 nM | 500 to 1000 nM |
| COc1cccc(-c2noc(-c3cccc(C(=O)O)c3)n2)c1 [Compound 53, 3-(3-(3-methoxyphenyl)-1,2,4-oxadiazol-5-yl)benzoic acid] | – | – | 500 to 1000 nM |
| CCn1c(-c2ccccc2)cs/c1=N\c1ccc(C(=O)O)c(F)c1F [Compound 10, (Z)-4-(3-ethyl-4-phenylthiazol-2(3H)-ylideneamino)-2,3-difluorobenzoic acid] | 86.2% | 485 nM | 250 to 500 nM |
| COc1ccc(-n2cc(-c3cccc(C(=O)O)c3)nn2)cc1 [Compound 54, 3-(1-(4-methoxyphenyl)-1H-1,2,3-triazol-4-yl)benzoic acid] | 68.9% | 1400 nM | 1000 to 5000 nM |
| CC(C)n1c(-c2ccccc2)cs/c1=N\c1ccc(C(=O)O)cc1 [Compound 17, (Z)-4-(3-isopropyl-4-phenylthiazol-2(3H)-ylideneamino)benzoic acid] | – | – | 100 to 250 nM |
| COc1ccc(-c2noc(-c3ccc(C(=O)O)cc3)n2)cc1 [Compound 52, 4-(3-(4-methoxyphenyl)-1,2,4-oxadiazol-5-yl)benzoic acid] | – | – | 1000 to 5000 nM |
| Cc1ccc(-c2cn(-c3cccc(C(=O)O)c3)nn2)cc1 [Compound 57, 3-(4-p-tolyl-1H-1,2,3-triazol-1-yl)benzoic acid] | 53.7% | 1340 nM | 1000 to 5000 nM |
| COc1ccc(-c2noc(-c3cccc(C(=O)O)c3)n2)cc1 [Compound 51, 3-[3-(4-Methoxyphenyl)-1,2,4-oxadiazol-5-yl]benzoic acid] | 55% | 184 nM | 100 to 250 nM |
| O=C(O)c1ccc(/N=c2\scc(-c3ccccc3)n2CC2CC2)cc1 [Compound 21, (Z)-4-(3-(cyclopropylmethyl)-4-phenylthiazol-2(3H)-ylideneamino)benzoic acid] | 84.7% | 446 nM | 250 to 500 nM |
| O=C(O)c1cccc(-n2cc(-c3ccc(F)cc3F)nn2)c1 [Compound 62, 3-(4-(2,4-difluorophenyl)-1H-1,2,3-triazol-1-yl)benzoic acid] | – | – | 250 to 500 nM |
| COc1ccc(-c2cn(-c3cccc(C(=O)O)c3)nn2)cc1 [Compound 55, 3-(4-(4-methoxyphenyl)-1H-1,2,3-triazol-1-yl)benzoic acid] | – | – | 1000 to 5000 nM |

Now from value to compound:

| Emax | EC50 (read-out: EC50) | EC50 (read-out: EC50 Range) | Compound |
| --- | --- | --- | --- |
| 98.4% | 207 nM | 100 to 250 nM | CCn1c(-c2ccccc2)cs/c1=N\c1ccc(-c2nn[nH]n2)cc1 [Compound 9, (Z)-N-(3-ethyl-4-phenylthiazol-2(3H)-ylidene)-4-(2H-tetrazol-5-yl)aniline] |
| – | – | 100 to 250 nM | CCn1c(-c2ccccc2)cs/c1=N\c1ccc(C(=O)O)c(Br)c1 [Compound 15, (Z)-2-bromo-4-(3-ethyl-4-phenylthiazol-2(3H)-ylideneamino)benzoic acid] |
| – | – | 100 to 250 nM | CCn1c(-c2ccccc2C(F)(F)F)cs/c1=N\c1ccc(C(=O)O)cc1 [Compound 11, (Z)-4-(3-ethyl-4-(2-(trifluoromethyl)phenyl)thiazol-2(3H)-ylideneamino)benzoic acid] |
| – | – | 250 to 500 nM | CCn1c(-c2cccc(F)c2)cs/c1=N\c1ccc(S(=O)(=O)O)cc1 [Compound 4, (Z)-4-(3-ethyl-4-(3-fluorophenyl)thiazol-2(3H)-ylideneamino)benzenesulfonic acid] |
| – | – | 100 to 250 nM | CCn1c(-c2cccc(Cl)c2)cs/c1=N\c1ccc(C(=O)O)cc1 [Compound 35, (Z)-4-(4-(3-chlorophenyl)-3-ethylthiazol-2(3H)-ylideneamino)benzoic acid] |
| – | – | 100 to 250 nM | O=C(O)c1ccc(/N=c2\scc(-c3ccccc3)n2CC(F)F)cc1 [Compound 23, (Z)-4-(3-(2,2-difluoroethyl)-4-phenylthiazol-2(3H)-ylideneamino)benzoic acid] |
| 85.6% | 547 nM | 500 to 1000 nM | CCn1c(-c2ccccc2)c(C)s/c1=N\c1ccc(S(=O)(=O)O)cc1 [Compound 3, (Z)-4-(3-ethyl-5-methyl-4-phenylthiazol-2(3H)-ylideneamino)benzenesulfonic acid] |
| – | – | 250 to 500 nM | CCn1c(-c2cccc(C#N)c2)cs/c1=N\c1ccc(C(=O)O)cc1 [Compound 49, (Z)-4-(4-(3-cyanophenyl)-3-ethylthiazol-2(3H)-ylideneamino)benzoic acid] |
| – | – | 1 to 100 nM | CCn1c(-c2ccccc2N)cs/c1=N\c1ccc(C(=O)O)cc1 [Compound 43, (Z)-4-(4-(2-aminophenyl)-3-ethylthiazol-2(3H)-ylideneamino)benzoic acid] |
| 123% | 541 nM | 500 to 1000 nM | CCn1c(-c2ccccc2OC(F)(F)F)cs/c1=N\c1ccc(S(=O)(=O)O)cc1 [Compound 6, (Z)-4-(3-ethyl-4-(2-(trifluoromethoxy)phenyl)thiazol-2(3H)-ylideneamino)benzenesulfonic acid] |
| 102% | 396 nM | 250 to 500 nM | CCn1c(-c2cc(C(F)(F)F)cc(C(F)(F)F)c2)cs/c1=N\c1ccc(S(=O)(=O)O)cc1 [Compound 2] |
| – | – | 100 to 250 nM | CCn1c(-c2cccc(Cl)c2Cl)cs/c1=N\c1ccc(C(=O)O)cc1 [Compound 39, (Z)-4-(4-(2,3-dichlorophenyl)-3-ethylthiazol-2(3H)-ylideneamino)benzoic acid] |
| – | – | 100 to 250 nM | CCn1c(-c2ccccc2)cs/c1=N\c1ccc(C(=O)O)c(F)c1 [Compound 14, (Z)-4-(3-ethyl-4-phenylthiazol-2(3H)-ylideneamino)-2-fluorobenzoic acid] |
| – | – | 250 to 500 nM | CCn1c(-c2ccccc2)cs/c1=N\c1ccc(C(=O)O)cc1 [Compound 36, (Z)-4-(3-ethyl-4-phenylthiazol-2(3H)-ylideneamino)benzoic acid] |
| 81.1% | 628 nM | 500 to 1000 nM | CCn1c(-c2cc(O)ccc2Br)cs/c1=N\c1ccc(C(=O)O)cc1 [Compound 19, (Z)-4-(4-(2-bromo-5-hydroxyphenyl)-3-ethylthiazol-2(3H)-ylideneamino)benzoic acid] |
